Assay results as given in patent publication US10682388B2, “Targeting of PELP1 in cancer therapy” (THE BOARD OF REGENTS OF THE UNIVERSITY OF TEXAS SYSTEM, priority 2014, dated 2020).

Tests used:
[1] = system: ERE-luciferase in ZRPELP1 cells; assay: ERE-luciferase reporter gene assay in PELP1 overexpressing cells; assay type: cell-based, Human; conditions: peptide 24 hours, estradiol 12 hours, compared to control TAT, FIGS. 4B, 10
Experimental: FIGS. 4A-E. (FIG. 4A) ZR75vec, ZR75PELP1, MCF7vec and MCF7PELP1 cells were treated in triplicate with TAT, PIP1 or PIP1 deletions (Del1, Del2, Del3) at 10 uM every 3 days and proliferation was measured by MTT assay on day 7. (FIG. 4B) ZRPELP1 cells were transfected with ERE-luciferase and treated with TAT, PIP1, or PIP2 for 24 hours and with estradiol for 12 hours. Relative luciferase activity was measured in triplicate. (FIG. 4C) ZR75 cells were grown in 5% DCC media for 72 hours, treated with TAT or PIP1 every 3 days, and treated with estradiol 10^−7 M for 12 hours. Proliferation was measured in triplicate on day 7 by MTT assay at 595 nm. (FIG. 4D) MCF7-Letrozole resistant cells were grown in 5% DCC media for 72 hours, treated with TAT, PIP1 or PIP2 every 3 days, and letrozole or estradiol 10^−7 M for 12 hours. Proliferation was measured in triplicate on day 7 by MTT assay at 595 nm. (FIG. 4E) MCF7-Tamoxiefn resistant cells were grown in 5% DCC media for 72 hours, treated with TAT, PIP1 or PIP2 every 3 days, and tamoxifen or estradiol 10^−7 M for 12 hours. Proliferation was measured in triplicate on day 7 by MTT assay at 595 nm.
FIG. 10. ERE-luciferase assay. […]
Model cells were seeded in 6-well plates. […] Luciferase activity was measured by using the luciferase assay system (Promega, Madison, Wis.).

[2] = system: ZRPELP1 cells; assay: Initial screen, proliferation assay of PELP1-overexpressing breast cancer cells; assay type: cell-based, Human; conditions: FIG. 1B
Experimental: FIGS. 1A-D. (FIG. 1A) Diagram for yeast two hybrid screen to identify PELP1 binding peptides. Four regions of PELP1 were tagged with the binding domain and a library of 10^6 random peptides (Clontech) were bound to an activation domain. The number of positive colonies per region of PELP1 are shown in the graph. (FIG. 1B) A proliferation assay was performed with […]1 cells plated in a 96 well plate, treated with peptide every 3 days and absorbance was measured at 7 days. (FIG. 1C) ZR75 were plated in a 6-well plate on coverslips in 8% RPMI and treated with 10 uM FITC labeled peptide for 30, 60, or 120 minutes. They were then fixed with pararformaldehyde, stained for PELP1 (red) and DAPI (blue), and imaged by confocal microscopy to monitor intracellular delivery. (FIG. 1D) ZR75 cells were starved of estrogen for 72 hours and treated with estradiol 10^-7 M for 12 hours. Nuclear lysate was incubated with biotin-tagged peptides bound to avidin beads for one hour. Beads were washed, run on SDS-PAGE gel and probed for PELP1 expression. Input of nuclear lysate is shown as control. Cell proliferation rates were measured by using MTT Cell Viability Assay in 96-well plates. Model cells were seeded in 96-well plates (1×10^3 cells/well) in DMEM or RPMI medium containing 10% serum. After an overnight incubation, cells were treated with varying concentrations of the peptides for 3-7 days and growth inhibition was determined by using traditional MTT assay (Sigma) following manufacturer's instructions.

[3] = biological target: T1, PELP1-G9a complex (Homo sapiens, UniProt Q8IZL8); assay: In vitro peptide competition assay, G9a-GST on glutathione beads with purified PELP1; assay type: binding; conditions: peptides 2, 5, 10 μM, 2 hours, FIGS. 2C, 7B, 9
T1 construct: purified bacterial, full-length PELP1; host or cells: bacteria (PELP1)
Experimental: FIGS. 2A-D. (FIG. 2A) Immunoprecipitation was performed on nuclear lysates obtained from ZRPELP1 cells grown in 5% DCC for 72 hours and treated with estradiol 10^−7 M for 12 hours. PELP1 was immunoprecipitated and western blotting was performed for PELP1 and G9a expression with IgG as the control. (FIG. 2B) Various fragments of PELP1 bound to glutathione beads were incubated with recombinant G9a for 2 hours. Beads were washed, run on an SDS-PAGE gel and immunoblotted for G9a expression. GST tag alone is shown as control. (FIG. 2C) Recombinant G9a-GST was bound to glutathione beads and incubated with purified PELP1 and peptides for 2 hours. Beads were washed and run on SDS-PAGE gel. (FIG. 2D) ZR75 cells were transfected with ERE-luciferase, PELP1 and/or G9a plasmids and treated with peptide for 24 hours and estradiol 10^−7 M for 12 hours. Relative luciferase activity is shown.
FIGS. 7A-E. (FIG. 7A) Bacterial purified PELP1 was incubated with biotin-tagged peptides bound to avidin beads for one hour. Beads were washed, run on SDS-PAGE gel and probed for PELP1 expression. Input of bacterial PELP1 is shown as control. (FIG. 7B) Recombinant G9a-GST was bound to glutathione beads and incubated with purified PELP1 and peptides for 2 hours. Beads were washed and run on SDS-PAGE gel. (+2 μM, ++5 μM, +++10 μM). (FIG. 7C) ZRGST and ZRPELP1GST cells were transfected in triplicate with TopFlash β-catenin reporter and treated with TAT or PIP1 (10 μM) for 24 hours. Relative luciferase activity is shown. (FIG. 7D) MCF7vec and MCF7PELP1 cells were treated with TAT or PIP1 (10 μM) and toxicity was measured by CytoTox-Flour Cytotoxicity Assay. (FIG. 7E) ZR75 and ZR75PELP1 cells were treated with TAT, PIP1 or PIP2 for 24 hours and immunoblotted for PELP1 and ERα expression with actin as the loading control.
FIG. 9. […]
Peptides were linked to EZ-Link NHS-Biotin (Thermo Scientific) per manutfacturer's protocol. […] Beads were washed 3× with IP buffer (20 mM HEPES pH 7.9, 20% glycerol, 0.1% triton-x, 100 mM KCl), eluted with SDS-dye, and PELP1 expression was determined by western blotting. […]

T1 sequence (Q8IZL8 2-1130, one chain of several): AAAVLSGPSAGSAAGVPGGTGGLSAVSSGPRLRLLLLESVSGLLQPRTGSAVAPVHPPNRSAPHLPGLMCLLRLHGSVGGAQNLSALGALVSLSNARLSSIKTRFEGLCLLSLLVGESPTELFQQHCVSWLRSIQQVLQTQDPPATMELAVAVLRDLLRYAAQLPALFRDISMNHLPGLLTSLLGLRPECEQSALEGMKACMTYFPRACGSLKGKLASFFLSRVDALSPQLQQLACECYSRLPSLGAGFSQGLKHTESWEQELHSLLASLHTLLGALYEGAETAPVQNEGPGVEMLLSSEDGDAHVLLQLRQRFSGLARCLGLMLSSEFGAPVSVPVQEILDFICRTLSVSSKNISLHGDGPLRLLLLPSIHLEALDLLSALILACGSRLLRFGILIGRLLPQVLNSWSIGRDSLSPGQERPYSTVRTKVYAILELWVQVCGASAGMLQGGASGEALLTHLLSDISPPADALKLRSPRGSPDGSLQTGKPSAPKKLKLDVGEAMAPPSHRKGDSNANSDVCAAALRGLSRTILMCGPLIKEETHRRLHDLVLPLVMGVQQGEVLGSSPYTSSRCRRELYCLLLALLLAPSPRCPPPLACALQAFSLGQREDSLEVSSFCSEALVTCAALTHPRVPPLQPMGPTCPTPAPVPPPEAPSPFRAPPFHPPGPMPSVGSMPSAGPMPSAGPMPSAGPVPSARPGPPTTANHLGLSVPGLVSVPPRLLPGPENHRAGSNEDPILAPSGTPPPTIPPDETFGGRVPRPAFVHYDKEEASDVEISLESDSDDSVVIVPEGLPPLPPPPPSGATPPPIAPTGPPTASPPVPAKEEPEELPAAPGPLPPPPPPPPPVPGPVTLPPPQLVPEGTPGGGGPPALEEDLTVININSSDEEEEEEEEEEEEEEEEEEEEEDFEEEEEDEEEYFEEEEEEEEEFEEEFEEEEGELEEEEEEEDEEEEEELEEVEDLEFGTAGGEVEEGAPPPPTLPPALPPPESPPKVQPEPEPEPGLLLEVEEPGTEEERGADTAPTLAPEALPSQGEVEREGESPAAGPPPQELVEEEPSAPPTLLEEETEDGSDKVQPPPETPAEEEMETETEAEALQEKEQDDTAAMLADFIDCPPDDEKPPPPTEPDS

## GRKKRRQRRRGGMVEFRWSCPGRRKAKA [PIP1]
[1]
  ERE activation (ERE-luciferase): significantly decreased ERE activation
[2]
  efficiency at inhibiting proliferation, PIP1 compared with PIP2: more efficient at inhibiting proliferation than PIP2
[2]; peptide every 3 days, absorbance at 7 days
  PELP1-mediated breast cancer cell proliferation: significantly inhibit PELP1-mediated proliferation
[3]
  disruption of PELP1 interaction with G9a/EHMT2: disrupted by the addition of either of the two peptides in a dose-dependent manner
